The text below walks through data of patent EP0003920A1, “Thieno (3,2-c)- and thieno (2,3-c)pyridines, process for their preparation and their therapeutical application” (OMNIUM FINANCIER AQUITAINE POUR L'HYGIENE ET LA SANTE - …, priority 1978, dated 1979).

Data set [1] deals with rat. In words: Anticonvulsant action against electroshock. As to conditions: 100 mg/kg oral, electroshock 30 min after treatment, score 0 to 4, untreated controls 4. In kind it is in vivo. The procedure: Cette action a été étudiée vis-à-vis des électrochocs. L'application chez le rat d'une stimulation électrique supérieure au seuil électro-convulsivant provoque des convulsions expérimentales. On compare alors chez les animaux témoins et chez les animaux traités, à la fois la présence et la durée de chacune des phases convulsives et l'intensité de la crise dans son ensemble.
On établit des séries de 10 rats par produit à tester et on administre par la voie orale, à chaque animal, 100 mg/kg de ce produit.
De chaque côté de la base de la queue de chaque […], une électrode Cat mise en place et 30 minutes après le traitement, l'animal placé dans une enceinte de verre reçoit pendant 50 millisecondes un courant sinusoïdal de 50 périodes/secondes de 120 volts.
Le passage du courant déclenche une crise convulsive dont chacune des phases (tonique, clonique, relachement musculaire) est chronométrée. L'intensité de la crise est alors notée de 0 à 4 selon la présence de chacune des phases et leur durée. Les produits de l'invention sont testés comparativement au phénobarbital qui possède une action anti-convulsivante marquée (intensité de la crise = 2), alors que chez les animaux témoins non traités c'est l'intensité maxima de 4 qui est obtenue.

For data set [2], the system named is rat. The data set is described as follows: Generalised ovalbumin oedema. The data set is classed as in vivo. As to conditions: po, 100 mg/kg per os 1 h before and together with ovalbumin. The procedure:
Une injection intrapéritonéale simultanée de 1 ml d'ovalbumine et de 0,5 ml d'une solution aqueuse de bleu Evans à 1% est effectuée sur le rat. D'autre part, on administre per os aux animaux du lot traité 100 mg/kg du dérivé à tester une heure avant et en même temps que l'ovalbumine. L'intensité du phénomène ainsi provoqué est notée par un chiffre allant de 1 à 5 suivant la progression du syndrome inflammatoire. On détermine ainsi la moyenne de l'intensité oedémateuse et le pourcentage de diminution de la réaction oedémateuse par rapport au témoin, en fonction du temps.

In data set [3] the test system is rat. In words: Localised carrageenan-induced oedema. In kind it is in vivo. The settings on record: 100 mg/kg oral at -1 h, 0 h, +2.5 h. The procedure:
Une solution de carragénine (0,1 ml), à 1 %, est injectée dans les fléchisseurs métatarsiens de la patte postérieure droite du rat au temps 0. Les animaux du lot traité reçoivent en outre, par la voie orale, 100 mg par kg du dérivé à tester respectivement 1 heure avant, en même temps que l'injection de l'agent phlogogène, puis 1 heure et 2 heures et demi après. Les mesures qui sont effectuées à l'aide du micromètre de ROGH au temps 0, 1 heure, 2 heures, 3 heures et 5 heures après l'administration de la carragénine permettent de déterminer, en fonction du temps, le pourcentage d'activité anti-inflammatoire, par comparaison avec le lot témoin.
Background: The carrageenan paw model is a standard test of acute inflammation.

Data set [4] in a line: Acute toxicity, intravenous LD50 (method of Miller and Tainter). Set-up: species or system souris. As to conditions: mouse, in vivo, read-out: DL50/24 H/kg de poids corporel. The procedure: En ce qui concerne la toxicité aigüe, la DL50/24 H/kg de poids corporel, déterminée chez la souris selon la méthode de Miller et Tainter pour la voie orale est supérieure à 400 mg pour tous les dérivés.
Selon la même méthode, la DL50/24 H/kg de poids corporel déterminée par la vole intraveineuse est, par exemple, de 154 mg pour le dérivé N° 1, de 89 mg pour le dérivé N° 2, de 184mg pour le dérivé N° 10, de 130 mg pour le dérivé N° 11, de 350mg pour le dérivé N° 12, de 65 mg pour le dérivé N° 18, de 90 mg pour le dérivé N° 22, de 96 mg pour le dérivé N° 24 et de 105 mg pour le dérivé N° 31.

The next data set deals with souris. The data set is described as follows: Potentiation of an infra-hypnotic dose of sodium pentobarbital. The settings on record: mouse, 100 mg/kg oral, 30 min before i.p. infra-hypnotic dose of sodium pentobarbital; control 0. The data set is classed as in vivo. The procedure: Les composés de l'invention potentialisent de façon très nette l'action des hypnotiques. En effet, administrés à différents lots de souris par la voie orale, à la dose de 100 mg/ kg, trente minutes avant l'injection intrapéritonéale d'une dose infra-hypnotique de pentobarbital sodique, ils produisent par rapport aux animaux témoins non traités, une nette poten- tialisation de l'action du barbiturique.
En effet, le nombre de souris endormies, le temps moyen d'endormissement et la durée du sommeil sont nettement accrus dans les lots traités. Les résultats des composés les plus actifs sont rassemblés dans le Tableau I suivant.

Where [5] appears, read: 2 h after ovalbumin injection, read-out: Pourcentage d'activité anti-inflammatoire 2ème heure.
Where [6] appears, read: 3 h after ovalbumin injection, read-out: Pourcentage d'activité anti-inflammatoire 3ème heure.
Setting [7] is: 1 h after carrageenan, read-out: Pourcentage d'activité anti-inflammatoire 1ère heure.
[8] abbreviates: 2 h after carrageenan, read-out: Pourcentage d'activité anti-inflammatoire 2ème heure.
The mark [9] stands for this setting: 3 h after carrageenan, read-out: Pourcentage d'activité anti-inflammatoire 3ème heure.
The mark [10] stands for this setting: 5 h after carrageenan, read-out: Pourcentage d'activité anti-inflammatoire 5ème heure.

With `CCN(CC)C(=O)c1cc2sccc2cn1` [Dérivé 9, Diéthylaminocarbonyl-6 thiéno[3,2-c] pyridine], the “valeurs moyennes de l'intensité des crises” value in the data set on rat [1] was 2,5.

For `COc1ccccc1N1CCN(C(=O)c2cc3ccsc3cn2)CC1` [Dérivé 30, (o-méthoxyphényl-4 pipérazinyl-1) carbonyl-5 thiéno[2,3-c] pyridine], the inhibition in vivo at 100 mg/kg with rat [2] (setting [5]) was found to be 48%; in the data set on rat [2] (setting [6]), 56%; in the data set on rat [3] (setting [7]), 38%; in the data set on rat [3] (setting [8]) it was 45%; in the data set on rat [3] (setting [9]), 49%; in the data set on rat [3] (setting [10]), 53%. For the same compound, in the data set with rat [1], the “valeurs moyennes de l'intensité des crises” value was 2,5.

Take `O=C(c1cc2sccc2cn1)N1CCOCC1` [Dérivé 12, Morpholinocarbonyl-6 thiéno [3,2-c] pyridine]: the LD50 at 24 h in data set [4] was 350 mg/kg.

As to `CCC1(c2ccccc2)C(=O)NC(=O)NC1=O` [phénobarbital, reference compound], in the data set with rat [1], the “valeurs moyennes de l'intensité des crises” value was determined as 2.

For the compound `O=C(Nc1cccc(C(F)(F)F)c1)c1cc2sccc2cn1` [Dérivé 25, (trifluorométhyl-3 phényl)aminocarbonyl-6 thiéno[3,2-c] pyridine], the inhibition in vivo at 100 mg/kg with rat [2] (setting [5]) was determined as 51%; in the data set on rat [2] (setting [6]), 59%; in the data set on rat [3] (setting [7]), 39%; in the data set with rat [3] (setting [8]), 46%; with rat [3] (setting [9]), 49%; with rat [3] (setting [10]), 52%. The “Pourcentage d'animaux endormis” value in the data set with souris amounted to 90%. The “valeurs moyennes de l'intensité des crises” value in the data set on rat [1] was 2,5.

With `CCCCNC(=O)c1cc2sccc2cn1` [Dérivé 6, n-butylaminocarbonyl-6 thiéno [3,2-c] pyridine], the “Pourcentage d'animaux endormis” value in the data set on souris was 80%.

Turning to `O=C(NCc1cccnc1)c1cc2ccsc2cn1` [Dérivé 23, (pyridyl-3 méthyl)aminocarbonyl-5 thiéno [2,3-c]pyridine], the “Pourcentage d'animaux endormis” value with souris turned out to be 80%.

With `O=C(c1cc2sccc2cn1)N1CCN(c2cccc(Cl)c2)CC1` [Dérivé 28, (m-chlorophényl-4 pipérazinyl-1)carbonyl-6 thiéno[3,2-c] pyridine], the “Pourcentage d'animaux endormis” value in the data set on souris came to 80%.

`C=CCNC(=O)c1cc2sccc2cn1` [Dérivé 16, Allylaminocarbonyl-6 thiéno [3,2-c] pyridine]: in the data set with souris, the “Pourcentage d'animaux endormis” value worked out at 70%.

On to `O=C(NCCN1CCOCC1)c1cc2sccc2cn1` [Dérivé 19, β -morpholinoéthylaminocarbonyl-6 thiéno[3,2-c] pyridine], for which the “valeurs moyennes de l'intensité des crises” value with rat [1] is on record as 2,5.

As to `O=C(NCCc1ccccc1)c1cc2sccc2cn1` [Dérivé 15, Phénéthylaminocarbonyl-6 thiéno[3,2-c] pyridine], the inhibition in vivo at 100 mg/kg with rat [2] (setting [5]) was found to be 53%; with rat [2] (setting [6]), 60%; with rat [3] (setting [7]), 38%; with rat [3] (setting [8]), 45%; with rat [3] (setting [9]), 49%; in the data set on rat [3] (setting [10]) it was 53%. In the data set on souris, the “Pourcentage d'animaux endormis” value is reported as 90%.

Turning to `O=C(NCc1ccncc1)c1cc2ccsc2cn1` [Dérivé 21, (pyridyl-4-méthyl)aminocarbonyl-5-thiéno[2,3-c] pyridine], the inhibition in vivo at 100 mg/kg was found to be 45% in the data set with rat [2] (setting [5]); 52% in the data set with rat [2] (setting [6]); 40% in the data set on rat [3] (setting [7]); 48% in the data set on rat [3] (setting [8]); 51% with rat [3] (setting [9]); 54% with rat [3] (setting [10]).

As to `O=C(NCc1ccccc1)c1cc2ccsc2cn1` [Dérivé 13, Benzylaminocarbonyl-5 thiéno [2,3-c] pyridine], the inhibition in vivo at 100 mg/kg in the data set on rat [2] (setting [5]) was found to be 50%; in the data set on rat [2] (setting [6]) it was 56%; in the data set with rat [3] (setting [7]), 34%; with rat [3] (setting [8]), 40%; with rat [3] (setting [9]), 45%; in the data set with rat [3] (setting [10]), 51%. Further, the “valeurs moyennes de l'intensité des crises” value in the data set with rat [1] amounted to 3.

Regarding `COc1ccc(N2CCN(C(=O)c3cc4sccc4cn3)CC2)cc1` [Dérivé 29, (p-méthoxyphényl-4 pipérazinyl-1) carbonyl-6 tniéno[3,2-c] pyridine], in the data set on souris, the “Pourcentage d'animaux endormis” value is on record as 90%.

Turning to `O=C(NCc1cccnc1)c1cc2sccc2cn1` [Dérivé 24, (pyridyl-3 méthyl)aminocarbonyl-6 thiéno[3,2-c] pyridine], the LD50 at 24 h in data set [4] amounted to 96 mg/kg.

For `CCNC(=O)c1cc2sccc2cn1` [Dérivé 4, Ethylaminocarbonyl-6 thiéno [3,2-c] pyridine], the inhibition in vivo at 100 mg/kg in the data set on rat [2] (setting [5]) worked out at 47%; in the data set with rat [2] (setting [6]), 56%; in the data set on rat [3] (setting [7]) it was 41%; in the data set with rat [3] (setting [8]), 46%; in the data set with rat [3] (setting [9]), 50%; in the data set on rat [3] (setting [10]) it was 58%. The “valeurs moyennes de l'intensité des crises” value in the data set on rat [1] came out at 3.

On to `O=C(c1cc2sccc2cn1)N1CCN(c2ccccc2Cl)CC1` [Dérivé 27, (o-chlorophényl-4 pipérazinyl-1) carbonyl-6 thiéno[3,2-c] pyridine], for which the inhibition in vivo at 100 mg/kg turned out to be 47% in the data set on rat [2] (setting [5]); 56% in the data set on rat [2] (setting [6]); 41% with rat [3] (setting [7]); 49% in the data set with rat [3] (setting [8]); 52% with rat [3] (setting [9]); 54% with rat [3] (setting [10]).

Turning to `CC(C)NC(=O)c1cc2ccsc2cn1` [Dérivé 5, Isopropylaminocarbonyl-5 thiéno [2,3-c] pyridine], the inhibition in vivo at 100 mg/kg with rat [2] (setting [5]) stood at 52%; with rat [2] (setting [6]), 60%; in the data set with rat [3] (setting [7]), 43%; in the data set on rat [3] (setting [8]) it was 49%; in the data set on rat [3] (setting [9]), 54%; in the data set with rat [3] (setting [10]) it was 56%. Besides, the “Pourcentage d'animaux endormis” value in the data set on souris was 80%. The “valeurs moyennes de l'intensité des crises” value with rat [1] is 2,5.

As to `NC(=O)c1cc2ccsc2cn1` [Dérivé 32, Carbamoyl-5 thiéno [2,3-c] pyridine], the inhibition in vivo at 100 mg/kg in the data set on rat [2] (setting [5]) was 52%; with rat [2] (setting [6]), 60%; in the data set on rat [3] (setting [7]), 34%; in the data set on rat [3] (setting [8]) it was 41%; in the data set on rat [3] (setting [9]), 45%; in the data set on rat [3] (setting [10]), 47%.

`Cc1ccc(N2CCN(C(=O)c3cc4sccc4cn3)CC2)cc1` [Dérivé 26, (p-tolyl-4 pipérazinyl-1)carbonyl-6 thiéno[3,2-c]bvridine]: the “Pourcentage d'animaux endormis” value in the data set on souris is recorded as 90%.
